Measured values reported in ChEMBL document CHEMBL2413073, “Efficient construction of novel D-ring modified steroidal dienamides and their cytotoxic activities” (Eur J Med Chem, 2013).

Key:
MGC-803 [1] = experiment: Cytotoxicity against human MGC803 cells after 72 hrs by MTT assay; assay type: functional, cell-based; details: MGC-803, 72 h
MCF7 = experiment: cells; details: Homo sapiens, MCF7, 72 h
Description: Cytotoxicity against human MCF7 cells after 72 hrs by MTT assay

SMMC-7721 [2] = experiment: Cytotoxicity against human SMMC7721 cells after 72 hrs by MTT assay; assay type: functional, cell-based; details: SMMC-7721, 72 h
[3] = Cytotoxicity against human EC109 cells after 72 hrs by MTT assay; assay type: functional, cell-based; details: ECa-109, 72 h
PC-3 = experiment: Cytotoxicity against human PC3 cells after 72 hrs by MTT assay; assay type: functional, cell-based; details: PC-3, 72 h
MGC-803 [4] = experiment: Ratio of 5-fluorouracil IC50 to compound IC50 for human MGC803 cells; assay type: functional
SMMC-7721 [5] = experiment: Ratio of 5-fluorouracil IC50 to compound IC50 for human SMMC7721 cells; assay type: functional

## CC(=O)O[C@H]1CC[C@@]2(C)C(=CC[C@@H]3[C@@H]2CC[C@]2(C)C(=C(/C#N)C(N)=O)/C(=C/c4cccc(Cl)c4)C[C@@H]32)C1
MGC-803 [1]
  IC50: 0.11 µM
MCF7
  IC50: 8.01 µM
SMMC-7721 [2]
  IC50: 7.12 µM
[3]
  IC50: 8.97 µM
PC-3
  IC50: 11.3 µM

## CC(=O)O[C@H]1CC[C@@]2(C)C(=CC[C@@H]3[C@@H]2CC[C@]2(C)C(=C(/C#N)C(N)=O)/C(=C/c4ccc(Br)cc4)C[C@@H]32)C1
MGC-803 [1]
  IC50: 2.71 µM
MCF7
  IC50: 2.95 µM
SMMC-7721 [2]
  IC50: 16.5 µM
[3]
  IC50: 5.3 µM
PC-3
  IC50: 26.8 µM

## COc1cccc(/C=C2\C[C@H]3[C@@H]4CC=C5C[C@@H](OC(C)=O)CC[C@]5(C)[C@H]4CC[C@]3(C)\C2=C(\C#N)C(N)=O)c1
MGC-803 [1]
  IC50: 2.19 µM
MCF7
  IC50: 8.36 µM
SMMC-7721 [2]
  IC50: 11.5 µM
[3]
  IC50: 7.04 µM
PC-3
  IC50: 13 µM

## CC(=O)O[C@H]1CC[C@@]2(C)C(=CC[C@@H]3[C@@H]2CC[C@]2(C)C(=C(/C#N)C(N)=O)/C(=C/c4ccccc4)C[C@@H]32)C1
MGC-803 [1]
  IC50: 3.1 µM
MCF7
  IC50: 7.47 µM
SMMC-7721 [2]
  IC50: 5.03 µM
[3]
  IC50: 11.7 µM
PC-3
  IC50: 12.8 µM

## CC(=O)O[C@H]1CC[C@@]2(C)C(=CC[C@@H]3[C@@H]2CC[C@]2(C)C(=C(/C#N)C(N)=O)/C(=C/c4ccco4)C[C@@H]32)C1
MGC-803 [1]
  IC50: 0.12 µM
MCF7
  IC50: 39.4 µM
MGC-803 [4]
  Ratio IC50: 57
SMMC-7721 [2]
  IC50: 22.9 µM
[3]
  IC50: 39.4 µM
PC-3
  IC50: 23.4 µM

## CC(=O)O[C@H]1CC[C@@]2(C)C(=CC[C@@H]3[C@@H]2CC[C@]2(C)C(=C(/C#N)C(N)=O)/C(=C/c4ccc(Cl)cc4Cl)C[C@@H]32)C1
MGC-803 [1]
  IC50: 7.38 µM
MCF7
  IC50: 3.98 µM
SMMC-7721 [2]
  IC50: 5.04 µM
[3]
  IC50: 5.24 µM
PC-3
  IC50: 24.3 µM

## C[C@]12CC[C@H](O)CC1=CC[C@@H]1[C@@H]2CC[C@]2(C)C(=C(/C#N)C(N)=O)/C(=C/c3ccccc3Cl)C[C@@H]12
MGC-803 [1]
  IC50: 5.13 µM
MCF7
  IC50: 5.34 µM
SMMC-7721 [2]
  IC50: 3.63 µM
[3]
  IC50: 13.2 µM
PC-3
  IC50: 16.9 µM

## COc1cc(/C=C2\C[C@H]3[C@@H]4CC=C5C[C@@H](O)CC[C@]5(C)[C@H]4CC[C@]3(C)\C2=C(\C#N)C(N)=O)cc(OC)c1OC
MGC-803 [1]
  IC50: 1.83 µM
MCF7
  IC50: 6.54 µM
SMMC-7721 [2]
  IC50: 7.94 µM
[3]
  IC50: 8.72 µM
PC-3
  IC50: 12.2 µM

## CC(=O)O[C@H]1CC[C@@]2(C)C(=CC[C@@H]3[C@@H]2CC[C@]2(C)C(=C(/C#N)C(N)=O)/C(=C/c4ccccc4C#N)C[C@@H]32)C1
MCF7
  IC50: 22.4 µM

## CC(=O)O[C@H]1CC[C@@]2(C)C(=CC[C@@H]3[C@@H]2CC[C@]2(C)C(=C(/C#N)C(N)=O)/C(=C/c4ccc(C(C)C)cc4)C[C@@H]32)C1
MGC-803 [1]
  IC50: 1.09 µM
MCF7
  IC50: 15.3 µM
SMMC-7721 [2]
  IC50: 9.3 µM
[3]
  IC50: 10 µM
PC-3
  IC50: 13.5 µM

## CC(=O)O[C@H]1CC[C@@]2(C)C(=CC[C@@H]3[C@@H]2CC[C@]2(C)C(=C(/C#N)C(N)=O)/C(=C/c4ccccc4F)C[C@@H]32)C1
MGC-803 [1]
  IC50: 2.99 µM
MCF7
  IC50: 4.66 µM
SMMC-7721 [2]
  IC50: 15.4 µM
[3]
  IC50: 15.6 µM
PC-3
  IC50: 11.4 µM

## CC(=O)O[C@H]1CC[C@@]2(C)C(=CC[C@@H]3[C@@H]2CC[C@]2(C)C(=C(/C#N)C(N)=O)/C(=C/c4ccccc4Cl)C[C@@H]32)C1
MGC-803 [1]
  IC50: 0.58 µM
MCF7
  IC50: 6.27 µM
SMMC-7721 [2]
  IC50: 18.4 µM
[3]
  IC50: 11.9 µM
PC-3
  IC50: 24.3 µM

## COc1cc(/C=C2\C[C@H]3[C@@H]4CC=C5C[C@@H](OC(C)=O)CC[C@]5(C)[C@H]4CC[C@]3(C)\C2=C(\C#N)C(N)=O)cc(OC)c1OC
MGC-803 [1]
  IC50: 6.34 µM
MCF7
  IC50: 5.23 µM
SMMC-7721 [2]
  IC50: 2.82 µM
[3]
  IC50: 5.28 µM
PC-3
  IC50: 11.7 µM

## COc1cccc(/C=C2\C[C@H]3[C@@H]4CC=C5C[C@@H](O)CC[C@]5(C)[C@H]4CC[C@]3(C)\C2=C(\C#N)C(N)=O)c1
MGC-803 [1]
  IC50: 3.96 µM
MCF7
  IC50: 5.57 µM
SMMC-7721 [2]
  IC50: 6.09 µM
[3]
  IC50: 9.27 µM
PC-3
  IC50: 14 µM

## CC(=O)O[C@H]1CC[C@@]2(C)C(=CC[C@@H]3[C@@H]2CC[C@]2(C)C(=C(/C#N)C(N)=O)/C(=C/c4ccc(F)c(F)c4)C[C@@H]32)C1
MGC-803 [1]
  IC50: 1.56 µM
MCF7
  IC50: 4.77 µM
SMMC-7721 [2]
  IC50: 5.66 µM
[3]
  IC50: 3.05 µM
PC-3
  IC50: 8.48 µM

## CC(=O)O[C@H]1CC[C@@]2(C)C(=CC[C@@H]3[C@@H]2CC[C@]2(C)C(=C(/C#N)C(N)=O)/C(=C/c4ccc(C)cc4)C[C@@H]32)C1
MGC-803 [1]
  IC50: 8.1 µM
MCF7
  IC50: 6.35 µM
SMMC-7721 [2]
  IC50: 18.6 µM
[3]
  IC50: 12 µM
PC-3
  IC50: 22.9 µM

## C[C@]12CC[C@H](O)CC1=CC[C@@H]1[C@@H]2CC[C@]2(C)C(=C(/C#N)C(N)=O)/C(=C/c3ccc(F)cc3)C[C@@H]12
MGC-803 [1]
  IC50: 5.67 µM
MCF7
  IC50: 5.92 µM
SMMC-7721 [2]
  IC50: 3.34 µM
[3]
  IC50: 8.69 µM
PC-3
  IC50: 14.6 µM

## CC(=O)O[C@H]1CC[C@@]2(C)C(=CC[C@@H]3[C@@H]2CC[C@]2(C)C(=C(/C#N)C(N)=O)/C(=C/c4ccc(F)cc4)C[C@@H]32)C1
MGC-803 [1]
  IC50: 3.11 µM
MCF7
  IC50: 3.67 µM
SMMC-7721 [2]
  IC50: 5.9 µM
[3]
  IC50: 4.78 µM
PC-3
  IC50: 9.17 µM

## CC(=O)O[C@H]1CC[C@@]2(C)C(=CC[C@@H]3[C@@H]2CC[C@]2(C)C(=C(/C#N)C(N)=O)/C(=C/c4ccc(Cl)c(Cl)c4)C[C@@H]32)C1
MGC-803 [1]
  IC50: 3.2 µM
MCF7
  IC50: 2.21 µM
SMMC-7721 [2]
  IC50: 2.55 µM
[3]
  IC50: 4.37 µM
PC-3
  IC50: 8.18 µM

## O=c1[nH]cc(F)c(=O)[nH]1 [FLUOROURACIL]
SMMC-7721 [2]
  IC50: 9.78 µM
[3]
  IC50: 10.6 µM
PC-3
  IC50: 24.8 µM

## C[C@]12CC[C@H](O)CC1=CC[C@@H]1[C@@H]2CC[C@]2(C)C(=C(/C#N)C(N)=O)/C(=C/c3ccc(Cl)c(Cl)c3)C[C@@H]12
MGC-803 [1]
  IC50: 5.11 µM
MCF7
  IC50: 2.41 µM
SMMC-7721 [2]
  IC50: 3.34 µM
[3]
  IC50: 8.61 µM
PC-3
  IC50: 8.84 µM

## CC(=O)O[C@H]1CC[C@@]2(C)C(=CC[C@@H]3[C@@H]2CC[C@]2(C)C(=C(/C#N)C(N)=O)/C(=C/c4cccs4)C[C@@H]32)C1
MGC-803 [1]
  IC50: 0.15 µM
MCF7
  IC50: 22.8 µM
MGC-803 [4]
  Ratio IC50: 45
SMMC-7721 [2]
  IC50: 20.4 µM
[3]
  IC50: 20.3 µM
PC-3
  IC50: 20.4 µM

## C[C@]12CC[C@H](O)CC1=CC[C@@H]1[C@@H]2CC[C@]2(C)C(=C(/C#N)C(N)=O)/C(=C/c3ccccc3F)C[C@@H]12
SMMC-7721 [5]
  Ratio IC50: 5
MGC-803 [1]
  IC50: 2.69 µM
MCF7
  IC50: 6.58 µM
SMMC-7721 [2]
  IC50: 1.9 µM
[3]
  IC50: 14.6 µM
PC-3
  IC50: 13.3 µM
